Measurements from patent publication US7704995B2 (Exelixis, Inc., priority 2003, dated 2010).

Experiments:
Assay in all cases: Kinase specificity assay (33P phosphoryl transfer, LCCA or AlphaScreen)
Type in all cases: biochemical
EGFR = EGFR (Homo sapiens, UniProt P00533); conditions: ATP close to KM; read-out: EGFR inhibition, IC50
Description: (§1) Kinase activity and compound inhibition are investigated using one or more of the three assay formats described below. The ATP concentrations for each assay are selected to be close to the Michaelis-Menten constant (KM) for each individual kinase. Dose-response experiments are performed at 10 different inhibitor concentrations in a 384-well plate format. The data are fitted to the following four-parameter equation: Y=Min+(Max−Min)/(1+(X/IC50)^H) where Y is the observed signal, X is the inhibitor concentration, Min is the background signal in the absence of enzyme (0% enzyme activity), Max is the signal in the absence of inhibitor (100% enzyme activity), IC50 is the inhibitor concentration at 50% enzyme inhibition and H represents the empirical Hill's slope to measure the cooperativity. Typically H is close to unity. ^33P Phosphoryl Transfer Assay:
(§2) Greiner 384-well white, clear bottom, high binding plates are coated with 2 μg/well of protein or peptide substrate in a 50 μL volume overnight at ambient temperature. The coating buffer typically contains 40 μg/mL substrate, 22.5 mM Na2CO3, 27.5 mM NaHCO3, 150 mM NaCl and 3 mM NaN3. The coating solution is aspirated and the plates are washed once with 50 μL of assay buffer and padded dry. Subsequently compounds and enzymes are mixed with γ^33P-ATP (3.3 μCi/nmol) in a total volume of 20 uL in suitable assay buffers. The mixture is incubated at ambient temperature for 1.5-2.5 hrs and terminated by aspiration using a Molecular Devices EMBLA 96-head plate washer. The plates are subsequently washed 6-12 times with PBST or TBS buffer. Scintillation fluid (50 μl/well) is then added, the plates are sealed and activity assessed by liquid scintillation spectrometry using a Perkin Elmer MicroBeta TriLux.
(§3) In the LCCA assays, kinase activity is measured as the percent ATP consumed following the kinase reaction using luciferase-luciferin-coupled chemiluminescence. Greiner 384-well white, clear bottom, medium binding plates are used for LCCA. Briefly, the kinase reaction is initiated by mixing compounds, ATP and kinase in a 20 uL volume. The mixture is incubated at ambient temperature for 2-4 hrs. At the end of the kinase reaction, a 20 uL luciferase-luciferin mix is added and the chemiluminescent signal is read using a Wallac Victor^2 reader. The luciferase-luciferin mix consists of 50 mM HEPES, pH 7.8, 8.5 ug/mL oxalic acid (pH 7.8), 5 (or 50) mM DTT, 0.4% Triton X-100, 0.25 mg/mL coenzyme A, 63 uM AMP, 28 ug/mL luciferin and 40,000 units of light/mL luciferase. For the LCCA assays, total ATP consumption has been standardized to 25-45% and the IC50 values correlates well with those determined by radiometric assays.
(§4) AlphaScreen technology is a proximity assay which utilizes the increase in fluorescent signal when donor and acceptor beads are close in proximity. Biotinylated poly(Glu,Tyr) 4:1 is used as the kinase substrate, in conjunction with streptavidin-coated donor beads and anti-phosphortyrosine antibody PY100-coated acceptor beads. Upon phosphorylation, the peptide substrate can bind to both donor and acceptor beads giving rise to an increase in fluorescence. Compounds, ATP, biotinylated poly(Glu, Tyr) and kinases are mixed in a volume of 20 uL for 1 hr at ambient temperature using Greiner 384-well white clear bottom medium binding plates. Following incubation a 10 uL solution containing […] AlphaScreen beads, 75 mM Hepes, pH 7.4, 300 mM NaCl, 120 mM EDTA, 0.3% BSA and 0.03% Tween-20 is added to each well. After 2-16 hr incubation of the beads, plates are read in a Perkin Elmer AlphaQuest reader. The IC50 values correlates well with those of radiometric assays.

CLK1 = CLK1 (Homo sapiens, UniProt P49759); conditions: ATP close to KM; read-out: CLK1 inhibition, IC50
Description: as §1, §2, §3, §4

PLK = PLK (Homo sapiens, UniProt P53350); conditions: ATP close to KM; read-out: PLK inhibition, IC50
Description: as §1, §2, §3, §4

EphB4 = biological target: T1, EphB4 (Homo sapiens, UniProt P54760); conditions: ATP close to KM; read-out: EphB4 inhibition, IC50
T1 sequence (P54760 16-987): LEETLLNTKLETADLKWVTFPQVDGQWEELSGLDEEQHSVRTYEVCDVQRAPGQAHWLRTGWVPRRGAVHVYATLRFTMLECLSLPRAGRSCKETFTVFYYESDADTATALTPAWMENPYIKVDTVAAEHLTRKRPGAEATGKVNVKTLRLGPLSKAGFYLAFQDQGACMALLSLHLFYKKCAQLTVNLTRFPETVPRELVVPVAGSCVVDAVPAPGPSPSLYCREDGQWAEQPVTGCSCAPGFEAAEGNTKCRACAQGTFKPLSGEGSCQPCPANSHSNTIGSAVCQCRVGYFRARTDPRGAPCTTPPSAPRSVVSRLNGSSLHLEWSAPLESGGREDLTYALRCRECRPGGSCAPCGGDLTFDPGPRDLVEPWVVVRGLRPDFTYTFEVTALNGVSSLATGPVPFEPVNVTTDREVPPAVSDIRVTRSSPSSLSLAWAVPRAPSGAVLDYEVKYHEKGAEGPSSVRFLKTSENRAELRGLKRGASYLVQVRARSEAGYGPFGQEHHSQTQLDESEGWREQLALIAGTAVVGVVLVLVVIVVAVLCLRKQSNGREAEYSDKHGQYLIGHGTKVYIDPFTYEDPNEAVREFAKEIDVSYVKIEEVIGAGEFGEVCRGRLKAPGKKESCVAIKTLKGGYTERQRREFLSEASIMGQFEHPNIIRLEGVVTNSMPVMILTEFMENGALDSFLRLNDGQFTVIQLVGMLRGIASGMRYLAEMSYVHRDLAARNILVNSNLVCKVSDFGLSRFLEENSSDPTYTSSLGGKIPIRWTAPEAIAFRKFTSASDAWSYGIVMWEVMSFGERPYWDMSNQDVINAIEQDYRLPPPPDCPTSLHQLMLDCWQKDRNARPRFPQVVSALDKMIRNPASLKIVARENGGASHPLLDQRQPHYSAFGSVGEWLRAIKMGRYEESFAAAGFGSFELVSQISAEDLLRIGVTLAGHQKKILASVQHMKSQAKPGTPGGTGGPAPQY
Description: as §1, §2, §3, §4

Flt1 = Flt1 (Homo sapiens, UniProt P17948); conditions: ATP close to KM; read-out: Flt1 inhibition, IC50
Description: as §1, §2, §3, §4

IRK = IRK (Homo sapiens, UniProt P06213); conditions: ATP close to KM; read-out: IRK inhibition, IC50
Description: as §1, §2, §3, §4

FGFR1 = FGFR1 (Homo sapiens, UniProt P11362); conditions: ATP close to KM; read-out: FGFR1 inhibition, IC50
Description: as §1, §2, §3, §4

CLK1, sequence (P49759 whole entry): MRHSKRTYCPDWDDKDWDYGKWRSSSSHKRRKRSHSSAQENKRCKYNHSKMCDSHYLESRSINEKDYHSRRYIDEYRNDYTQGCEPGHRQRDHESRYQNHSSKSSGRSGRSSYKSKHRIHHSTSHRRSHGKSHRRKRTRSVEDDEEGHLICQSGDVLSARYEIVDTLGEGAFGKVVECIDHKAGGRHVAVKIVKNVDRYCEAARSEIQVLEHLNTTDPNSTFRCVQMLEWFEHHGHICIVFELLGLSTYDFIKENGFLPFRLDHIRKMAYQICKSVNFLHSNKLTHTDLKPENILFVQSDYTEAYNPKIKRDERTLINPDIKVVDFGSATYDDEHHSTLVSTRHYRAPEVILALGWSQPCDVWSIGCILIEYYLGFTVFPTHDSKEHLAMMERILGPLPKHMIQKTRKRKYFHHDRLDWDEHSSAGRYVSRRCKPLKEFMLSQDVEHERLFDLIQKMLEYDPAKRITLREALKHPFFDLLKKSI
EGFR, sequence (P00533 25-1210): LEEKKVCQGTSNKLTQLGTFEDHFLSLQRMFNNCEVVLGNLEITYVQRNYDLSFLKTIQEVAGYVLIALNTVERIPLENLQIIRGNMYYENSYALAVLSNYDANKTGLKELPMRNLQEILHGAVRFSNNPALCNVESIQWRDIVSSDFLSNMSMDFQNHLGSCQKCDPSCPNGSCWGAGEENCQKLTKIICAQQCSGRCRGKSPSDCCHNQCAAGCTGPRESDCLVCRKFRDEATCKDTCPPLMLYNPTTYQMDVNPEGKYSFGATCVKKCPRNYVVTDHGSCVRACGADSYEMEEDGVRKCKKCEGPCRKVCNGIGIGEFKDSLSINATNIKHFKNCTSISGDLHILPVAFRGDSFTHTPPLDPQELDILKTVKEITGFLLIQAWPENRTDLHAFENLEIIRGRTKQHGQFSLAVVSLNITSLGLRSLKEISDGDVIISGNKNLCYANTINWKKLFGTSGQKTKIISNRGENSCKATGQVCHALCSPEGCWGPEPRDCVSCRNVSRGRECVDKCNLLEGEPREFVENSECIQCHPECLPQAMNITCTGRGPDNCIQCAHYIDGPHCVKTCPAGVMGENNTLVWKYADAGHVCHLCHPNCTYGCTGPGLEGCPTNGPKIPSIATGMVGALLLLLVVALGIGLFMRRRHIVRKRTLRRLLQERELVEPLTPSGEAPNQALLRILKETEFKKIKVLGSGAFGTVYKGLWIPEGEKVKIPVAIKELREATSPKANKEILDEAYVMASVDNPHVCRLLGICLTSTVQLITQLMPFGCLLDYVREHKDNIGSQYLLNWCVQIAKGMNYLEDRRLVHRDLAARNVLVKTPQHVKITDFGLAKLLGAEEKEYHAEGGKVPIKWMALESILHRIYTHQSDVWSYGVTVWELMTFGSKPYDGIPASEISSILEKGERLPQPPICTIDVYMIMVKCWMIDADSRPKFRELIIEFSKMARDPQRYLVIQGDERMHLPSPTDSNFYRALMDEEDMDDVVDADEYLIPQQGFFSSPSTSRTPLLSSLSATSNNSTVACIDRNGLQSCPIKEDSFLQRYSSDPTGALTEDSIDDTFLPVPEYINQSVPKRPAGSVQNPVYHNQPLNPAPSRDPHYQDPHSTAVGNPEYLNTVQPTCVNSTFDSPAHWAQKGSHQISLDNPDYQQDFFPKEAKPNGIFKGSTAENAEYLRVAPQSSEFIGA
FGFR1, sequence (P11362 22-822): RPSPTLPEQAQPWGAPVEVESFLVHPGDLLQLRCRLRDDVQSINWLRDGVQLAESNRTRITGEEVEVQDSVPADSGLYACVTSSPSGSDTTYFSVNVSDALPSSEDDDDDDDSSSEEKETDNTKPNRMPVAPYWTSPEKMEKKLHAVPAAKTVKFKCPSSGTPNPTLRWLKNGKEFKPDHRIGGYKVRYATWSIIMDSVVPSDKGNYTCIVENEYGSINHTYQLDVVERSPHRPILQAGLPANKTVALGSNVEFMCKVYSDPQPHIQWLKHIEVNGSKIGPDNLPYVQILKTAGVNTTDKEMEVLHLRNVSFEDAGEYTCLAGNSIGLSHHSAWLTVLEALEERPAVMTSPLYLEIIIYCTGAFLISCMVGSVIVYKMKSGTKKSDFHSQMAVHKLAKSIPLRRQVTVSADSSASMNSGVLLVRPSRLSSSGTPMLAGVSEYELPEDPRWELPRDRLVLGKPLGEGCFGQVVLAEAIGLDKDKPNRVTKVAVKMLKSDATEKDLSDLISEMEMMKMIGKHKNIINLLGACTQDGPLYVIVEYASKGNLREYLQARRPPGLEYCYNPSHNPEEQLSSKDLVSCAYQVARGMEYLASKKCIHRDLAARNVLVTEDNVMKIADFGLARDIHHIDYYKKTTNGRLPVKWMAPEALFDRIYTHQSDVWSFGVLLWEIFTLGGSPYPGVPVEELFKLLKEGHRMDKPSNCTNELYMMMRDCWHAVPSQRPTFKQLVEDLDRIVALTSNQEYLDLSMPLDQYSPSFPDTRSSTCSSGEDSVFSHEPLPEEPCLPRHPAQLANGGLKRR
PLK, sequence (P53350 whole entry): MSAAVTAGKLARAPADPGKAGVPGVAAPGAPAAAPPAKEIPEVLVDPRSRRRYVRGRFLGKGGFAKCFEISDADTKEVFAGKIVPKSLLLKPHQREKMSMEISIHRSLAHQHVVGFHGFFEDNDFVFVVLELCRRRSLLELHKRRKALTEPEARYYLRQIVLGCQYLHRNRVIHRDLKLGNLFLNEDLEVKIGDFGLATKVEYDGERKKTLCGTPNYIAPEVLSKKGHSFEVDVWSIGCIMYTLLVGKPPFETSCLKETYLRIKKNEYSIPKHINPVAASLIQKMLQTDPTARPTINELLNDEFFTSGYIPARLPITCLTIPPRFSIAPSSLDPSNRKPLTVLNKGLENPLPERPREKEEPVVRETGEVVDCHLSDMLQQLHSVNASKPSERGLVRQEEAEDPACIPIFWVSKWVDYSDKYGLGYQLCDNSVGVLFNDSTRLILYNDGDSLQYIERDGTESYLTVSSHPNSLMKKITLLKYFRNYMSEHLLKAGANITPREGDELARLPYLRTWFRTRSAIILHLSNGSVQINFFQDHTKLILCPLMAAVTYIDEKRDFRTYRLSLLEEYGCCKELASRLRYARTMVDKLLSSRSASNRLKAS
Flt1, sequence (P17948 27-1338): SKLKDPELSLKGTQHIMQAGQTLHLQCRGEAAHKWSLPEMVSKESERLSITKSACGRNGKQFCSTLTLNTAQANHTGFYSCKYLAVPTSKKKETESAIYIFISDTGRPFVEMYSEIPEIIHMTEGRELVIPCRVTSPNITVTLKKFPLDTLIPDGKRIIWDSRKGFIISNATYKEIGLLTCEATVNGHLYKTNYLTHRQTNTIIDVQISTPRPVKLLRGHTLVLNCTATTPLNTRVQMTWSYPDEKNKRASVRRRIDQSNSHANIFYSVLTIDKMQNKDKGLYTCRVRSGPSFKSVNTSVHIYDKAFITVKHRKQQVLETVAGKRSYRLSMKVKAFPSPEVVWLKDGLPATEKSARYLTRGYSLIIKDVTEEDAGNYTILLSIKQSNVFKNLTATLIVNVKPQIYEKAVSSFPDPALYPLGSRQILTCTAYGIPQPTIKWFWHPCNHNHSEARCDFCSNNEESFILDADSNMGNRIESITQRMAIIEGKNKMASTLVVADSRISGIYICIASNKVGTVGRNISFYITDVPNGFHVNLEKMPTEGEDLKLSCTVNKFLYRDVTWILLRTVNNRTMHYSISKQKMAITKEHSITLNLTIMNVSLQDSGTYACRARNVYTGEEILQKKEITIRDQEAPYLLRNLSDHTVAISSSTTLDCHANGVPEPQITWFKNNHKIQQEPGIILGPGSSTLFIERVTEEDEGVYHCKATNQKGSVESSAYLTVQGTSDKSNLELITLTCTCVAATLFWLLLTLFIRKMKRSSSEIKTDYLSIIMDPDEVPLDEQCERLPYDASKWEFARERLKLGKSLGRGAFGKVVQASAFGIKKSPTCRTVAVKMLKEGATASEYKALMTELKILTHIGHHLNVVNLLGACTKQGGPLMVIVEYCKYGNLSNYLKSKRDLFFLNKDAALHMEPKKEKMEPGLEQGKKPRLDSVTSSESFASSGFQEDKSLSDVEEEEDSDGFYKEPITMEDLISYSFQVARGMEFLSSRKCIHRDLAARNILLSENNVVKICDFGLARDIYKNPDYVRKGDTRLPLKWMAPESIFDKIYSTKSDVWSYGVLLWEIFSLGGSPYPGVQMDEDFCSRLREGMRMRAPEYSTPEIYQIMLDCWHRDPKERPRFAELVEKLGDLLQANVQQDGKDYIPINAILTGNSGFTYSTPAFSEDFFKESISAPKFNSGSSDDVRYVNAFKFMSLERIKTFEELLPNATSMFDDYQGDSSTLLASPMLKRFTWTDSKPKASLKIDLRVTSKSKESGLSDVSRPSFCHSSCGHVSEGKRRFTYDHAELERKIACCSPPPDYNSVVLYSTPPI

NC(=O)c1nc(-c2cccc3ccccc23)cnc1N [Example 2, 3-Amino-6-naphthalen-1-ylpyrazine-2-carboxamide]
IC50 (EGFR): ≥ 10 µM | IC50 (CLK1): 1 to 10 µM | IC50 (PLK): 1 to 10 µM | IC50 (EphB4): ≥ 10 µM | IC50 (Flt1): 0.05 to 1 µM | IC50 (IRK): ≥ 10 µM | IC50 (FGFR1): 1 to 10 µM
